Measurements as given in patent US7538132B2, “Isoxazolo derivatives” (Hoffman-La Roche Inc., priority 2005, dated 2009).

Each molecule was assayed against T1, GABA A receptor α5β3γ2 (hα5) (Homo sapiens, UniProt P18507+P31644) (assay: [3H]flumazenil competition binding assay, human GABA A α5β3γ2 receptors). Conditions: displacement of [3H]flumazenil (0.5 nM) from membranes of HEK293 cells expressing human α5β3γ2; 1 hour at 4° C.; means of two determinations.
T1 construct: expressed in transfected cells; host or cells: HEK293 (transiently transfected; membranes prepared from cell pellets)
Protocol: The affinity of compounds at GABA A receptor subtypes was measured by competition for [3H]flumazenil (85 Ci/mmol; Roche) binding to HEK293 cells expressing rat (stably transfected) or human (transiently transfected) receptors of composition α1β3γ2, α2⊖3γ2, α3β3γ2 and α5β3γ2.
Cell pellets were suspended in Krebs-tris buffer (4.8 mM KCl, 1.2 mM CaCl2, 1.2 mM MgCl2, 120 mM NaCl, 15 mM Tris; pH 7.5; binding assay buffer), homogenized by polytron for ca. 20 sec on ice and centrifuged for 60 min at 4° C. (50000 g; Sorvall, rotor: SM24=20000 rpm). The cell pellets were resuspended in Krebs-tris buffer and homogenized by polytron for ca. 15 sec on ice. Protein was measured (Bradford method, Bio-Rad) and aliquots of 1 mL were prepared and stored at −80° C.
Assays were incubated to equilibrium for 1 hour at 4° C. and harvested onto GF/C uni-filters (Packard) by filtration using a Packard harvester and washing with ice-cold wash buffer (50 mM Tris; pH 7.5). After drying, filter-retained radioactivity was detected by liquid scintillation counting. Ki values were calculated using Excel-Fit (Microsoft) and are the means of two determinations.
`Cc1onc(-c2ccc(F)cc2)c1C(=O)c1c[nH]c(C(=O)NC2CCCC2)c1` [Example 136, 4-[3-(4-Fluoro-phenyl)-5-methyl-isoxazole-4-carbonyl]-1H-pyrrole-2-carboxylic acid cyclopentylamide] gave a Ki of 0.00165 µM.
Work on `Cc1onc(-c2ccc(Br)cc2)c1C(=O)c1cc(C(=O)NCCCN2CCOCC2)n(C)c1` [Example 232, 4-[3-(4-Bromo-phenyl)-5-methyl-isoxazole-4-carbonyl]-1-methyl-1H-pyrrole-2-carboxylic acid (3-morpholin-4-yl-propyl)-amide] yielded a Ki of 0.0087 µM.
`Cc1onc(-c2ccc(Br)cc2)c1C(=O)c1cc(C(=O)NC2CCOCC2)n(C)c1` [Example 231, 4-[3-(4-Bromo-phenyl)-5-methyl-isoxazole-4-carbonyl]-1-methyl-1H-pyrrole-2-carboxylic acid (tetrahydro-pyran-4-yl)-amide] gave a Ki of 0.008 µM.
For `Cc1onc(-c2ccc(F)cc2)c1C(=O)c1c[nH]c(C(=O)NC2CC2)c1` [Example 137, 4-[3-(4-Fluoro-phenyl)-5-methyl-isoxazole-4-carbonyl]-1H-pyrrole-2-carboxylic acid cyclopropylamide], the Ki was 0.0041 µM.
Work on `Cc1onc(-c2ccc(Br)cc2)c1C(=O)c1c[nH]c(C(=O)NC2CCOC(C)(C)C2)c1` (centres unmarked) [Example 135, 4-[3-(4-Bromo-phenyl)-5-methyl-isoxazole-4-carbonyl]-1H-pyrrole-2-carboxylic acid (2,2-dimethyl-tetrahydro-pyran-4-yl)-amide] yielded a Ki of 0.0045 µM.
`CCc1onc(-c2ccccc2)c1C(=O)c1c[nH]c(C(=O)NC2CC2)c1` [Example 217, 4-(5-Ethyl-3-phenyl-isoxazole-4-carbonyl)-1H-pyrrole-2-carboxylic acid cyclopropylamide] was tested, and the Ki was 0.00485 µM.
`Cc1onc(-c2ccc(F)c(F)c2)c1C(=O)c1c[nH]c(C(=O)NC2CCCC2)c1` [Example 255, 4-[3-(3,4-Difluoro-phenyl)-5-methyl-isoxazole-4-carbonyl]-1H-pyrrole-2-carboxylic acid cyclopentylamide] showed a Ki of 0.0064 µM.
`Cc1onc(-c2ccc(Cl)cc2)c1C(=O)c1c[nH]c(C(=O)NC2CCOCC2)c1` [Example 162, 4-[3-(4-Chloro-phenyl)-5-methyl-isoxazole-4-carbonyl]-1H-pyrrole-2-carboxylic acid (tetrahydro-pyran-4-yl)-amide] showed a Ki of 0.0014 µM.
With `Cc1onc(-c2ccccc2)c1C(=O)c1c[nH]c(C(=O)NC2CCOCC2)c1` [Example 26, 4-(5-Methyl-3-phenyl-isoxazole-4-carbonyl)-1H-pyrrole-2-carboxylic acid (tetrahydro-pyran-4-yl)-amide] the Ki was 0.00285 µM.
With `Cc1onc(-c2ccc(F)c(F)c2)c1C(=O)c1c[nH]c(C(=O)NC2CCOCC2)c1` [Example 254, 4-[3-(3,4-Difluoro-phenyl)-5-methyl-isoxazole-4-carbonyl]-1H-pyrrole-2-carboxylic acid (tetrahydro-pyran-4-yl)-amide] the Ki was 0.0042 µM.
With `CCc1onc(-c2ccccc2)c1C(=O)c1c[nH]c(C(=O)NC2CCOCC2)c1` [Example 210, 4-(5-Ethyl-3-phenyl-isoxazole-4-carbonyl)-1H-pyrrole-2-carboxylic acid (tetrahydro-pyran-4-yl)-amide] the Ki was 0.00245 µM.
Molecule `Cc1onc(-c2ccccc2)c1C(=O)c1c[nH]c(C(=O)NCC2CC2)c1` [Example 12, 4-(5-Methyl-3-phenyl-isoxazole-4-carbonyl)-1H-pyrrole-2-carboxylic acid cyclopropylmethyl-amide] has a Ki of 0.0066 µM.
Work on `Cc1onc(-c2ccc(Cl)cc2)c1C(=O)c1c[nH]c(C(=O)NCC2CC2)c1` [Example 156, 4-[3-(4-Chloro-phenyl)-5-methyl-isoxazole-4-carbonyl]-1H-pyrrole-2-carboxylic acid cyclopropylmethyl-amide] yielded a Ki of 0.00385 µM.
With `Cc1onc(-c2ccc(F)cc2)c1C(=O)c1c[nH]c(C(=O)NCCO)c1` [Example 140, 4-[3-(4-Fluoro-phenyl)-5-methyl-isoxazole-4-carbonyl]-1H-pyrrole-2-carboxylic acid (2-hydroxy-ethyl)-amide] the Ki was 0.0099 µM.
`COCc1onc(-c2ccc(F)cc2)c1C(=O)c1c[nH]c(C(=O)NC2CCOCC2)c1` [Example 221, 4-[3-(4-Fluoro-phenyl)-5-methoxymethyl-isoxazole-4-carbonyl]-1H-pyrrole-2-carboxylic acid (tetrahydro-pyran-4-yl)-amide] gave a Ki of 0.0043 µM.
`Cc1onc(-c2ccc(Br)cc2)c1C(=O)c1c[nH]c(C(=O)N[C@H]2CC[C@H](O)CC2)c1` [Example 123, 4-[3-(4-Bromo-phenyl)-5-methyl-isoxazole-4-carbonyl]-1H-pyrrole-2-carboxylic acid (4-hydroxy-cyclohexyl)-amide] gave a Ki of 0.0045 µM.
Molecule `Cc1onc(-c2ccc(Cl)cc2)c1C(=O)c1c[nH]c(C(=O)NC2CC2)c1` [Example 154, 4-[3-(4-Chloro-phenyl)-5-methyl-isoxazole-4-carbonyl]-1H-pyrrole-2-carboxylic acid cyclopropylamide] has a Ki of 0.0061 µM.
`Cc1onc(-c2ccc(Cl)cc2)c1C(=O)c1c[nH]c(C(=O)NC2CCCC2)c1` [Example 152, 4-[3-(4-Chloro-phenyl)-5-methyl-isoxazole-4-carbonyl]-1H-pyrrole-2-carboxylic acid cyclopentylamide] was tested, and the Ki was 0.0052 µM.
Molecule `Cc1onc(-c2ccc(Cl)cc2)c1C(=O)c1c[nH]c(C(=O)NCc2ccco2)c1` [Example 160, 4-[3-(4-Chloro-phenyl)-5-methyl-isoxazole-4-carbonyl]-1H-pyrrole-2-carboxylic acid (furan-2-ylmethyl)-amide] has a Ki of 0.0069 µM.
`Cc1onc(-c2ccccc2)c1C(=O)c1c[nH]c(C(=O)NC2CCC2)c1` [Example 15, 4-(5-Methyl-3-phenyl-isoxazole-4-carbonyl)-1H-pyrrole-2-carboxylic acid cyclobutylamide] was tested, and the Ki was 0.00795 µM.
`Cc1onc(-c2ccc(F)cc2)c1C(=O)c1c[nH]c(C(=O)NC2CCOCC2)c1` [Example 146, 4-[3-(4-Fluoro-phenyl)-5-methyl-isoxazole-4-carbonyl]-1H-pyrrole-2-carboxylic acid (tetrahydro-pyran-4-yl)-amide] was tested, and the Ki was 0.00155 µM.
`Cc1onc(-c2ccccc2F)c1C(=O)c1c[nH]c(C(=O)NC2CCCC2)c1` [Example 173, 4-[3-(2-Fluoro-phenyl)-5-methyl-isoxazole-4-carbonyl]-1H-pyrrole-2-carboxylic acid cyclopentylamide] gave a Ki of 0.0063 µM.
`Cc1onc(-c2ccc(Br)cc2)c1C(=O)c1c[nH]c(C(=O)NC(C)C)c1` [Example 84, 4-[3-(4-Bromo-phenyl)-5-methyl-isoxazole-4-carbonyl]-1H-pyrrole-2-carboxylic acid isopropylamide] gave a Ki of 0.00685 µM.
With `Cc1onc(-c2cccc(F)c2)c1C(=O)c1c[nH]c(C(=O)NC2CCCC2)c1` [Example 178, 4-[3-(3-Fluoro-phenyl)-5-methyl-isoxazole-4-carbonyl]-1H-pyrrole-2-carboxylic acid cyclopentylamide] the Ki was 0.0061 µM.
With `Cc1onc(-c2ccc(F)cc2)c1C(=O)c1c[nH]c(C(=O)NCCc2cnc[nH]2)c1` [Example 141, 4-[3-(4-Fluoro-phenyl)-5-methyl-isoxazole-4-carbonyl]-1H-pyrrole-2-carboxylic acid [2-(1H-imidazol-4-yl)-ethyl]-amide] the Ki was 0.00605 µM.
Molecule `Cc1onc(-c2ccc(Br)cc2)c1C(=O)c1c[nH]c(C(=O)NC2CCOCC2)c1` [Example 61, 4-[3-(4-Bromo-phenyl)-5-methyl-isoxazole-4-carbonyl]-1H-pyrrole-2-carboxylic acid (tetrahydro-pyran-4-yl)-amide] has a Ki of 0.00365 µM.
For `C#CCNC(=O)c1cc(C(=O)c2c(-c3ccc(F)cc3)noc2C)c[nH]1` [Example 145, 4-[3-(4-Fluoro-phenyl)-5-methyl-isoxazole-4-carbonyl]-1H-pyrrole-2-carboxylic acid prop-2-ynylamide], the Ki was 0.00775 µM.
Molecule `CCc1onc(-c2ccccc2)c1C(=O)c1c[nH]c(C(=O)NC2CCCC2)c1` [Example 215, 4-(5-Ethyl-3-phenyl-isoxazole-4-carbonyl)-1H-pyrrole-2-carboxylic acid cyclopentylamide] has a Ki of 0.0021 µM.
For `CCc1onc(-c2ccccc2)c1C(=O)c1c[nH]c(C(=O)NCC2CC2)c1` [Example 216, 4-(5-Ethyl-3-phenyl-isoxazole-4-carbonyl)-1H-pyrrole-2-carboxylic acid cyclopropylmethyl-amide], the Ki was 0.0023 µM.
`Cc1onc(-c2ccc(Cl)cc2)c1C(=O)c1c[nH]c(C(=O)NCCO)c1` [Example 153, 4-[3-(4-Chloro-phenyl)-5-methyl-isoxazole-4-carbonyl]-1H-pyrrole-2-carboxylic acid (2-hydroxy-ethyl)-amide] was tested, and the Ki was 0.00755 µM.
Molecule `C#CCNC(=O)c1cc(C(=O)c2c(-c3ccc(Cl)cc3)noc2C)c[nH]1` [Example 157, 4-[3-(4-Chloro-phenyl)-5-methyl-isoxazole-4-carbonyl]-1H-pyrrole-2-carboxylic acid prop-2-ynylamide] has a Ki of 0.00745 µM.
In the case of `Cc1onc(-c2ccc(F)cc2)c1C(=O)c1c[nH]c(C(=O)NC2CCC2)c1` [Example 138, 4-[3-(4-Fluoro-phenyl)-5-methyl-isoxazole-4-carbonyl]-1H-pyrrole-2-carboxylic acid cyclobutylamide], the Ki is reported as 0.0036 µM.
